From US20210255193A1, “LYSINE REACTIVE PROBES AND USES THEREOF” (The Scripps Research Institute, priority 2017, published 2021) come the findings set out here.

The first experiment has as its target T1, ETFA Electron transfer flavoprotein subunit alpha, mitochondrial (Homo sapiens, UniProt P13804).
T1 construct: isoTOP-ABPP experiments performed in cell lysates (in vitro); endogenous in cells; host or cells: soluble proteome of human cancer cell lines (MDA-MB-231; Ramos and Jurkat also prepared)
T1 sequence (P13804 20-333): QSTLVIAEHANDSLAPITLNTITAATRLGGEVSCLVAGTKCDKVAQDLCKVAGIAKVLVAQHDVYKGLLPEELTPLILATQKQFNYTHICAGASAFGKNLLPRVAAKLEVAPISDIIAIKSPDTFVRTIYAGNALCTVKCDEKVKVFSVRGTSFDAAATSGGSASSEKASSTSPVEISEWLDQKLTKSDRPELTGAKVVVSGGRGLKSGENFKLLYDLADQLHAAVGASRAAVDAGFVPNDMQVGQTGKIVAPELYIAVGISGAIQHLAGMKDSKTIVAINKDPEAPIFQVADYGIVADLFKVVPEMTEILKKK
T1 sequence (P38117 2-255 partner limits assumed): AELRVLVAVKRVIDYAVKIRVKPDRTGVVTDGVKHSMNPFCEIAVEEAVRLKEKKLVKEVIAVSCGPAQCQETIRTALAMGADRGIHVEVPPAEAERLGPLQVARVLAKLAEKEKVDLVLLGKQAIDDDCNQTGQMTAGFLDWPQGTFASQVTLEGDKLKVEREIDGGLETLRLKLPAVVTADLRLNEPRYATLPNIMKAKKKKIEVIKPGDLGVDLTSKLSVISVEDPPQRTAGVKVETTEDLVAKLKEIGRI
Kind of experiment: competitive isoTOP-ABPP. In kind it is binding. The following applies: 50 uM, 231 sol, in vitro. Put shortly: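 Cell lysate treated in vitro with fragments (50 μM activated esters, 100 μM guanidinylating agents) or DMSO, labelled 1 h at ambient temperature with 0.1 mM STP-alkyne, CuAAC-tagged with light/heavy TEV tags, analysed by MS. R = DMSO/compound MS1 peak-area ratio; lysines with R≥4 called liganded.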
Regarding `O=C(Oc1c(F)c(F)c(F)c(F)c1F)C1CCN(C(=O)OCc2ccccc2)CC1` [fragment 24, 1-Benzyl 4-(pentafluorophenyl) piperidine-1,4-dicarboxylate], the “isoTOP-ABPP reactivity ratio at lysine P13804_K139” value (“isoTOP-ABPP reactivity ratio” for short) amounted to 1.1. As to `O=C(CCc1cn(-c2ccccc2)nc1-c1ccccc1)Oc1ccc([N+](=O)[O-])cc1[N+](=O)[O-]` [fragment 29, 2,4-Dinitrophenyl 3-(1,3-diphenyl-1H-pyrazol-4-yl)propanoate], the “isoTOP-ABPP reactivity ratio” value was 0.8. Turning to `O=C(Oc1ccc([N+](=O)[O-])cc1[N+](=O)[O-])C(c1ccccc1)c1ccccc1` [fragment 30, 2,4-Dinitrophenyl 2,2-diphenylacetate], the “isoTOP-ABPP reactivity ratio” value was determined as 20.0.

As for `O=C(Oc1ccc([N+](=O)[O-])cc1[N+](=O)[O-])c1cc(C(F)(F)F)cc(C(F)(F)F)c1` [fragment 31, 2,4-Dinitrophenyl 3,5-bis(trifluoromethyl)benzoate], the “isoTOP-ABPP reactivity ratio” value is reported as 0.8. As for `Cn1cc(CC(=O)Oc2ccc([N+](=O)[O-])cc2[N+](=O)[O-])c2ccccc21` [fragment 32, 2,4-Dinitrophenyl 2-(1-methyl-1H-indol-3-yl)acetate], the “isoTOP-ABPP reactivity ratio” value is given as 20.0. On the same count and under the same terms, with `COc1cc(CCC(=O)Oc2ccc([N+](=O)[O-])cc2[N+](=O)[O-])cc(OC)c1OC` [fragment 33, 2,4-Dinitrophenyl 3-(3,4,5-trimethoxyphenyl)propanoate] the figure was 0.7.

The experiment is the same for the next values; noted with them: 50 uM, in vitro, sol, 231.
As to `O=C(Oc1ccc([N+](=O)[O-])cc1[N+](=O)[O-])c1ccc2ccccc2n1` [fragment 35, 2,4-Dinitrophenyl quinoline-2-carboxylate], the “isoTOP-ABPP ratio (R) at liganded lysine P13804_K139” value (shortened to “isoTOP-ABPP ratio (R)”) came out at 0.9. Regarding `O=C(CCc1coc2cc(F)ccc2c1=O)Oc1ccc([N+](=O)[O-])cc1[N+](=O)[O-]` [fragment 36, 2,4-Dinitrophenyl 3-(7-fluoro-4-oxo-4H-chromen-3-yl)propanoate], the “isoTOP-ABPP ratio (R)” value turned out to be 0.7. Consider `O=C(Oc1ccc([N+](=O)[O-])cc1[N+](=O)[O-])c1ccc(-c2ccccc2)cc1` [fragment 37, 2,4-Dinitrophenyl [1,1′-biphenyl]-4-carboxylate], for which the “isoTOP-ABPP ratio (R)” value is recorded as 0.9. For `O=C(Oc1ccc([N+](=O)[O-])cc1[N+](=O)[O-])c1ccc(Oc2ccccc2)cc1` [fragment 39, 2,4-Dinitrophenyl 4-phenoxybenzoate], the “isoTOP-ABPP ratio (R)” value was determined as 0.6.

Take `O=C(Oc1ccc([N+](=O)[O-])cc1[N+](=O)[O-])c1ccccc1Nc1cccc(C(F)(F)F)c1` [fragment 40, 2,4-Dinitrophenyl 2-((3-(trifluoromethyl)phenyl)amino)benzoate]: the “isoTOP-ABPP ratio (R)” value was determined as 0.9. The same measure, in the same setting: with `CC(C)(C)OC(=O)NCCCC(=O)Oc1ccc([N+](=O)[O-])cc1[N+](=O)[O-]` [fragment 41, 2,4-Dinitrophenyl 4-((tert-butoxycarbonyl)amino)butanoate] the figure was 20.0.

The same experiment, now with this note: 50 uM_231_sol_in vitro.
On to `N#Cc1ccc(C(=O)Oc2ccc([N+](=O)[O-])cc2[N+](=O)[O-])cc1` [fragment 44, 2,4-Dinitrophenyl 4-cyanobenzoate], for which the “isoTOP-ABPP ratio, lysine P13804_K139” value came out at 0.9. Same read-out and setting: the same measure for `O=C(CCc1ccc2c(c1)OCO2)Oc1ccc([N+](=O)[O-])cc1[N+](=O)[O-]` [fragment 45, 2,4-Dinitrophenyl 3-(benzo[d][1,3]dioxol-5-yl)propanoate]: 1.0. On the same count and under the same terms, the same measure for `O=C(ON1C(=O)CCC1=O)c1cc(C(F)(F)F)cc(C(F)(F)F)c1` [fragment 46, 3,5-Bis(trifluoromethyl)benzoic acid NHS ester]: 0.9. On to `O=C(Oc1c(F)c(F)c(C(F)(F)F)c(F)c1F)c1cc(C(F)(F)F)cc(C(F)(F)F)c1` [fragment 47, 2,3,5,6-Tetrafluoro-4-(trifluoromethyl)phenyl 3,5-bis(trifluoromethyl)benzoate], for which the “isoTOP-ABPP ratio, lysine P13804_K139” value came out at 1.1.

As for `O=C(Oc1c(F)c(F)cc(F)c1F)c1cc(C(F)(F)F)cc(C(F)(F)F)c1` [fragment 48, 2,3,5,6-Tetrafluorophenyl 3,5-bis(trifluoromethyl)benzoate], the “isoTOP-ABPP ratio, lysine P13804_K139” value is listed as 0.9. In the case of `NC(=O)c1cc(C(F)(F)F)cc(C(F)(F)F)c1` [fragment 51, reference compound], the “isoTOP-ABPP ratio, lysine P13804_K139” value is on record as 1.0.

The experiment is the same for the next values; noted with them: 100 uM_231_sol_in vitro.
With `CC(C)(C)OC(=O)N=C(NC(=O)OC(C)(C)C)n1cccn1` [fragment 50, reference compound], the “isoTOP-ABPP ratio, lysine P13804_K139” value worked out at 1.1.

Staying with this experiment, now noted: P13804_K139; 50 uM, 231 sol, in vitro.
For `O=C(Oc1c(F)c(F)c(F)c(F)c1F)C(c1ccccc1)c1ccccc1` [fragment 20, Pentafluorophenyl 2,2-diphenylacetate], the “R value (DMSO/fragment) for probe 1 labeling” value (“R value (DMSO/fragment)” for short) was determined as 0.9. Take `Cn1cc(CC(=O)Oc2c(F)c(F)c(F)c(F)c2F)c2ccccc21` [fragment 22, Pentafluorophenyl 2-(1-methyl-1H-indol-3-yl)acetate]: the “R value (DMSO/fragment)” value is on record as 0.9. Regarding `COc1cc(CCC(=O)Oc2c(F)c(F)c(F)c(F)c2F)cc(OC)c1OC` [fragment 23, Pentafluorophenyl 3-(3,4,5-trimethoxyphenyl)propanoate], the “R value (DMSO/fragment)” value is given as 1.4.
